# From patent publication US20250197368A1 (priority 2020, published 2025)
# Where two headings read alike, the source gives them in different places.
# Tests used:
# [1] = biological target: human α2β3γ2 GABAARs (benzodiazepine site) (Homo sapiens (Human), UniProt P18507+P47869); experiment: In vitro radioligand binding assay ([3H]Ro15-1788 displacement), α2-GABAAR Ki
# Method: The affinity (Ki) of compounds for the benzodiazepine site of human recombinant GABAARs was measured by their ability to inhibit the binding of the selective benzodiazepine antagonist [^3H]Ro15-1788 ([^3H] flumazenil).
# Mouse L(tk^−) cells stably expressing human α1β3γ2, α2β3γ2, α3β3γ2, α5β3γ2 GABAARs were generated by transfection of the individual subunits in the dexamethasone-inducible expression vector pMSGneo in mouse L(tk^−) cells (Hadingham et al., 1993, Mol. Pharmacol. 43:970-975 and 1993, Mol. Pharmacol. 44:1211-1218).
# L(tk^−) cells stably expressing human α1β3γ2, α2β3γ2, α3β3γ2, α5β3γ2 GABAARs were maintained in DMEM F12 medium supplemented with 10% Foetal Bovine Serum, 1% Penicillin/Streptomycin and 1 mg/mL Geneticin G418 in an incubator at 37° C. with a humidified atmosphere with 5% CO2. Dexamethasone was added to the culture medium to induce GABAAR expression.
# L(tk−) cells were harvested and membranes were prepared for each receptor combination in either TE buffer (10 mM Tris·CI/0.1 mM EDTA, pH 7.5) or phosphate buffer (K2PO4 10 mM, pH 7.0) (Hadingham et al. (1992) Proc. Natl. Acad. Sci. USA; 89 (14): 6378-82). Protein concentration, receptor expression and the Kd of [^3H]Ro15-1788 were determined before Ki value of the compounds were evaluated. For Kd evaluation, saturation binding curves were obtained by incubating membrane with various concentrations of [^3H]Ro15-1788 (82.5 Ci/mM), with nonspecific binding measured in the presence of 1-3 μM TP003.
# For Ki evaluation, cell membranes were incubated with 4 nM [^3H]Ro15-1788 along with a range of concentrations of test compound. Nonspecific binding was determined using 1-3 μM TP003. All incubations were performed for 1 hour at 4° C. in assay buffer. The total assay volume was 0.5 mL, containing 40 μg/well α1β3γ2, 30 μg/well α2β3γ2, 40 μg/well α3β3γ2 and 30 μg/well for α5β3γ2 of membrane protein. Incubations were terminated by filtration and washing with ice cold Tris-HCl buffer (50 mM, pH=7.4) over Whatman GF/B filters and the radioactivity of the filters was measured using liquid scintillation counting.
# The % inhibition of [^3H]Ro15-1788 binding was plotted as a function of compound concentration and the IC50 calculated. From the IC50, the affinity (Ki) was calculated using the method of Cheng and Prusoff using the Kd values obtained for [^3H]Ro15-1788.
# human α2β3γ2 GABAARs = experiment: In vitro electrophysiological recording assay (automated patch-clamp), α2-GABAAR relative efficacy; assay type: cell-based; details: % efficacy normalised to diazepam; GABA EC10-20; concentration generally >= 100 times Ki
# Method: The efficacy of modulators was evaluated using the automated patch-clamp platforms QPatch16 (Sophion, Copenhagen, Denmark) or SyncroPatch 384PE (Nanion, Germany).
# For QPatch electrophysiology testing L(tk^−) cells stably expressing human α1β3γ2, α2β3γ2, α3β3γ2, α5β3γ2 GABAARs were used. HEK293 cells stably expressing human α1β3γ2L, α2β3γ2L, α3β3γ2L and α5β3γ2L GABAARs were used for the SyncroPatch 384PE experiments.
# All experiments were carried out at room temperature (20-22° C.) using a standard whole cell procedure and physiological solutions. Gigaseals were formed upon execution of a combined suction/voltage protocol with subsequent increased suction leading to the whole-cell configuration.
# The currents recorded were acquired at either 1 KHz or 2 KHz and filtered using a Bessel filter. Whole-cell currents were measured at a holding potential of-65 mV (QPatch) or −80 mV (SyncroPatch).
# For QPatch experiments, the extracellular solution contained of: 145 mM NaCl, 4 mM KCl, 1 mM MgCl2, 2 mM CaCl2), 10 mM HEPES, 10 mM D-glucose (pH 7.4), and the intracellular solution consisted of: 96 mM KCl, 28 mM CsCl, 25 mM KOH, 4.3 mM CaCl2), 1.4 mM MgCl2, 10 mM EGTA, 10 mM HEPES, 3 mM MgATP (pH 7.2). The osmolarities of the extracellular and intracellular solutions were 305 and 295 mOsm respectively.
# For SyncroPatch experiments, the extracellular recording solution contained: 140 mM NaCl, 4 mM KCl, 2 mM CaCl2), 1 mM MgCl2, 10 mM HEPES, 5 mM glucose (pH 7.4 with NaOH and osmolarity of c. 300-310 mOsm). The intracellular recording solution consisted of: 90 mM KCl, 50 mM KF, 1.5 mM MgCl2, 11.1 mM EGTA and 10 mM HEPES (pH 7.2 with KOH and osmolarity of c. 300 mOsm). 2 mM of NaATP was added to the intracellular solution on the day of testing.
# The effects of modulators were evaluated in the presence of a submaximal GABA concentration, giving typically less than 30% activation of the response elicited by a saturating GABA concentration. To check and ensure baseline current stability before compound addition, two to five consecutive applications of GABA EC10-20 separated by wash steps were performed before compound addition. The test compound was applied 1 min at least prior to co-application with GABA EC10-20. Following a further wash step, a saturating concentration of GABA was applied at the end of each recording, allowing the accurate evaluation for each cell of the percentage baseline activation elicited by the submaximal GABA applied.
# The compounds were first dissolved in DMSO as a 10 mM stock and then further diluted to the testing concentrations so that the final DMSO concentration in the extracellular recording solution was 0.1% (QPatch) or 0.2% (SyncroPatch).
# The % efficacy of modulators was determined from the GABA elicited currents recorded in the presence and absence of the test compound, using the formula:
# [((compound peak current−leak)−(GABA peak current-leak))/(GABA peak current−leak)]*100,
# where ‘leak’ is the leak baseline current at the holding potential, ‘compound peak current’ is the current elicited by co-application of compound and GABA, and ‘GABA peak current’ is the current elicited by GABA alone at the last GABA application before compound addition. The results were presented as ‘relative efficacy’ for each compound generally at a concentration equal or higher than 100 times their determined Ki. The relative efficacy of a compound was calculated by normalising its % efficacy to the corresponding % efficacy of diazepam that was separately determined.
# [2] = L(tk-) cell membranes, 4 nM [3H]Ro15-1788, read-out: α2-GABAAR Ki
# Chain of human α2β3γ2 GABAARs (benzodiazepine site) (P47869 29-451): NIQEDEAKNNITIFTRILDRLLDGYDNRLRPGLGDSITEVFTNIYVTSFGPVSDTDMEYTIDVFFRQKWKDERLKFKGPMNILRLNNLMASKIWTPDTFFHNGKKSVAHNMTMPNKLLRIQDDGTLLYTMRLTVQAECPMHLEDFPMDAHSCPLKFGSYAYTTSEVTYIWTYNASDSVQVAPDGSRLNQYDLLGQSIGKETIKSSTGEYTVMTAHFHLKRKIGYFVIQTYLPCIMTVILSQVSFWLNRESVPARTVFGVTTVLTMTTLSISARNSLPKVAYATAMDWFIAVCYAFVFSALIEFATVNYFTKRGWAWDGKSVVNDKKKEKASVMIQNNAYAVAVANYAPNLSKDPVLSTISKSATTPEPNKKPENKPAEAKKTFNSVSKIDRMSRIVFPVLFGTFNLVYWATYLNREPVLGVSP
# Chain of human α2β3γ2 GABAARs (benzodiazepine site) (P28472 26-473 partner): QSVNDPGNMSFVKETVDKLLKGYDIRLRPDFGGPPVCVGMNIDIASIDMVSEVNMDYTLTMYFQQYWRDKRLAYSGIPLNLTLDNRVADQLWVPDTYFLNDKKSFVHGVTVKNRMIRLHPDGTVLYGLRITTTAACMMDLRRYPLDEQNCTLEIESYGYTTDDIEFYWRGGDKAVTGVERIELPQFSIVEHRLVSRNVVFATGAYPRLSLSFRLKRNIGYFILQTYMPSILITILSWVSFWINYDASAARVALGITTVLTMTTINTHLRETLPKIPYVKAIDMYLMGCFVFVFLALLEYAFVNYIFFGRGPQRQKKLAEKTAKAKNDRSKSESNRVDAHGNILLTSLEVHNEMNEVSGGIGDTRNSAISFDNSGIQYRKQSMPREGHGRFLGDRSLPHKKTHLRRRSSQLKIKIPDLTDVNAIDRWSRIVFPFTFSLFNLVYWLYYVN
# Chain of human α2β3γ2 GABAARs (benzodiazepine site) (P18507 40-475): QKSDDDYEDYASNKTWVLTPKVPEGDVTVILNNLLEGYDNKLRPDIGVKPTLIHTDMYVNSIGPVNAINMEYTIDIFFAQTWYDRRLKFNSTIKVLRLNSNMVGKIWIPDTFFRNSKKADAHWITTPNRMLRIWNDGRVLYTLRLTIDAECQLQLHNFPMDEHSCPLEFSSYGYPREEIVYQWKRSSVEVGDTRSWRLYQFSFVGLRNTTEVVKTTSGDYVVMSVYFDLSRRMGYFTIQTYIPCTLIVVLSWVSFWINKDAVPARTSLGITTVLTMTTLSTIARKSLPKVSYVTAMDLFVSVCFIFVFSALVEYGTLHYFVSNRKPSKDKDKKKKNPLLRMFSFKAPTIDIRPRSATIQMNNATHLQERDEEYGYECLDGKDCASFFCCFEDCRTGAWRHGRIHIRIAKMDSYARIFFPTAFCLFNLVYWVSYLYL
Compound,Ki [1],α2-GABAAR Relative Efficacy (vs. Diazepam) (human α2β3γ2 GABAARs),"Ki [1, 2]"
"CCCNC(=O)c1c(N)c2cccc(-c3cccc(OC(F)(F)F)n3)c2[nH]c1=O [Example 1, 4-Amino-2-oxo-N-propyl-8-[6-(trifluoromethoxy)-2-pyridyl]-1H-quinoline-3-carboxamide]",0.00079 µM,0.13,
"CCCNC(=O)c1c(N)c2cccc(-c3cccc(C(F)F)n3)c2[nH]c1=O [Example 3, 4-Amino-8-[6-(difluoromethyl)-2-pyridyl]-2-oxo-N-propyl-1H-quinoline-3-carboxamide]",0.00199 µM,0.29,
"CCCNC(=O)c1c(N)c2cccc(-c3ncc(F)cc3F)c2[nH]c1=O [Example 6, 4-Amino-8-(3,5-difluoro-2-pyridyl)-2-oxo-N-propyl-1H-quinoline-3-carboxamide]",0.00087 µM,0.10,
"CCCNC(=O)c1c(N)c2cccc(-c3nc(OCC)ccc3F)c2[nH]c1=O [Example 9, 4-Amino-8-(6-ethoxy-3-fluoropyridin-2-yl)-2-oxo-N-propyl-1,2-dihydroquinoline-3-carboxamide]",0.00025 µM,0.23,
"CCCNC(=O)c1c(N)c2cccc(-c3nc(COC)ccc3F)c2[nH]c1=O [Example 10, 4-Amino-8-(3-fluoro-6-(methoxymethyl)pyridin-2-yl)-2-oxo-N-propyl-1,2-dihydroquinoline-3-carboxamide]",0.0015 µM,0.22,
"CCCNC(=O)c1c(N)c2cccc(-c3nc(CO)ccc3C)c2[nH]c1=O [Example 12, 4-Amino-8-(6-(hydroxymethyl)-3-methylpyridin-2-yl)-2-oxo-N-propyl-1,2-dihydroquinoline-3-carboxamide]",0.00817 µM,0.38,
"CCCNC(=O)c1c(N)c2cccc(-c3cnccc3C)c2[nH]c1=O [Example 15, 4-Amino-8-(4-methylpyridin-3-yl)-2-oxo-N-propyl-1,2-dihydroquinoline-3-carboxamide]",0.00409 µM,0.17,
"CCCNC(=O)c1c(N)c2cccc(-c3cnccc3F)c2[nH]c1=O [Example 16, 4-Amino-8-(4-fluoropyridin-3-yl)-2-oxo-N-propyl-1,2-dihydroquinoline-3-carboxamide]",0.0241 µM,0.34,
"CNC(=O)c1c(N)c2cccc(-c3cnccc3OC)c2[nH]c1=O [Example 55, 4-Amino-8-(4-methoxy-3-pyridyl)-N-methyl-2-oxo-1H-quinoline-3-carboxamide]",,,0.159 µM
"COc1ccncc1-c1cccc2c(N)c(C(=O)NC3CC3)c(=O)[nH]c12 [Example 57, 4-Amino-N-cyclopropyl-8-(4-methoxy-3-pyridyl)-2-oxo-1H-quinoline-3-carboxamide]",0.0733 µM,,
"COc1ccncc1-c1cccc2c(N)c(C(=O)NC3COC3)c(=O)[nH]c12 [Example 58, 4-Amino-8-(4-methoxy-3-pyridyl)-N-(oxetan-3-yl)-2-oxo-1H-quinoline-3-carboxamide]",,,0.154 µM
"COc1ccncc1-c1cccc2c(N)c(C(=O)NCC(F)F)c(=O)[nH]c12 [Example 61, 4-Amino-N-(2,2-difluoroethyl)-8-(4-methoxy-3-pyridyl)-2-oxo-1H-quinoline-3-carboxamide]",,,0.107 µM
"COc1ccncc1-c1cccc2c(N)c(C(=O)NCC(C)(F)F)c(=O)[nH]c12 [Example 65, 4-Amino-N-(2,2-difluoropropyl)-8-(4-methoxy-3-pyridyl)-2-oxo-1H-quinoline-3-carboxamide]",0.0552 µM,,
"COc1ccncc1-c1cccc2c(N)c(C(=O)NCCCO)c(=O)[nH]c12 [Example 66, 4-Amino-N-(3-hydroxypropyl)-8-(4-methoxy-3-pyridyl)-2-oxo-1H-quinoline-3-carboxamide]",0.0186 µM,,
"Nc1c(C(=O)NC2CC2)c(=O)[nH]c2c(-c3cnccc3OC(F)F)cccc12 [Example 70, 4-Amino-N-cyclopropyl-8-[4-(difluoromethoxy)-3-pyridyl]-2-oxo-1H-quinoline-3-carboxamide]",,,> 0.5 µM
"COCCNC(=O)c1c(N)c2cccc(-c3cnccc3OC(F)F)c2[nH]c1=O [Example 71, 4-Amino-8-[4-(difluoromethoxy)-3-pyridyl]-N-(2-methoxyethyl)-2-oxo-1H-quinoline-3-carboxamide]",,,> 0.5 µM
"Cc1nn(C)cc1-c1cccc2c(N)c(C(=O)NCC3COC3)c(=O)[nH]c12 [Example 72, 4-Amino-8-(1,3-dimethyl-1H-pyrazol-4-yl)-N-(oxetan-3-ylmethyl)-2-oxo-1,2-dihydroquinoline-3-carboxamide]",,,> 0.5 µM
"Cc1nn(C)cc1-c1cccc2c(N)c(C(=O)NCCC#N)c(=O)[nH]c12 [Example 74, 4-Amino-N-(2-cyanoethyl)-8-(1,3-dimethylpyrazol-4-yl)-2-oxo-1H-quinoline-3-carboxamide]",,,> 0.5 µM
"Cc1nn(C)cc1-c1cccc2c(N)c(C(=O)NCCCN(C)C)c(=O)[nH]c12 [Example 75, 4-Amino-N-[3-(dimethylamino)propyl]-8-(1,3-dimethylpyrazol-4-yl)-2-oxo-1H-quinoline-3-carboxamide]",,,0.171 µM
"CCCNC(=O)c1c(N)c2cccc(-c3cnccc3OC)c2n(C)c1=O [Example 77, 4-Amino-8-(4-methoxy-3-pyridyl)-1-methyl-2-oxo-N-propyl-quinoline-3-carboxamide]",0.00277 µM,,
"CCCNC(=O)c1c(N)c2ccnc(-c3cnccc3OC)c2[nH]c1=O [Example 84, 4-Amino-8-(4-methoxypyridin-3-yl)-2-oxo-N-propyl-1,2-dihydro-1,7-naphthyridine-3-carboxamide]",0.0755 µM,,
